# Laboratory results from patent US5605929A, “Methods and compositions for inhibiting 5α-reductase activity” (priority 1995, dated 1997).
# Read-outs that look alike come from different tables or passages of the source.
# Key:
# [1] = biological target: T1, 5α-Reductase of Rat Liver Microsomes (Rattus norvegicus, UniProt P24008); experiment: [3H]4-MA binding assay, rat liver microsomes (tea catechins)
# T1 sequence (P24008 1-259): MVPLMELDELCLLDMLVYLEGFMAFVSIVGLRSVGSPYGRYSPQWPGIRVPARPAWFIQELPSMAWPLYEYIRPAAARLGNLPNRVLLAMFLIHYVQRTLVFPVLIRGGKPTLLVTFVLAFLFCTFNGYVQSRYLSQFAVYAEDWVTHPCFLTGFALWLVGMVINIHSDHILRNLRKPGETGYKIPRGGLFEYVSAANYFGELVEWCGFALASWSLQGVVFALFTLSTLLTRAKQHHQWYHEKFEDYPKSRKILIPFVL
# Procedure, shortened: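 Microsomes from adult female Sprague-Dawley rat liver or Rat-1A cells expressing human 5α-reductase, 25 μg protein per reaction. Incubation 30–60 min at 0 °C; microsome-bound [3H]4-MA collected on glass-fibre filters and counted. Duplicate or triplicate determinations, values based on reaction rate.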
# [2] = NADPH oxidation in presence of microsomes
# [3] = EGCG ip 7 days, male rats, body and organ weights; type: in vivo, rat; conditions: based on the increase in the weight
# Experimental: (§1) Male Sprague-Dawley rats (body weight 180 g±10 g) were used. Each group had 5 rats. […] Rats in the control group received 0.1 ml 30% ethanol.
# [4] = system: male accessory reproductive organs and preputial organs; experiment: EGCG ip 7 days, male rats, body and organ weights; type: in vivo, rat
# Experimental: as §1
# [5] = system: UDP-glucuronic acid:5α-DHT glucuronosyl transferase; conditions: 10 to 40 μM
# hamster flank organ = conditions: for Pigmented macule, right flank organ / Pigmented macule, left flank organ (vehicle): 15 days; for Pigmented macule, right flank organ: vehicle 23.5 ± 3.8
# Experimental: Animals were divided into 10/group. The right flank organ was treated daily with 5 μl solution containing vehicle (ethanol) alone or γ-LA (0.5, 1, and 2 mg) for 15-25 days. The left flank organ of all animals received the same volume of vehicle.
# The lengths of the long axis and the short axis of the pigmented spot (pigmented macule) were measured using a caliper with digital display (Digimatic, Mitutoyo Corp., Japan). […] The data are presented as mean ± standard deviation.
# [6] = biological target: T1, 5α-Reductase of Rat Liver Microsomes; experiment: biochemical; conditions: for Ki: apparent Ki values for [^3 H]4-MA
# [7] = system: Human Prostatic Cancer Cells; experiment: Cell morphology during 2 hour incubation; type: cell-based
# [8] = system: 5α-reductase in liver and prostate; conditions: cited from earlier work
# [9] = read-out: % Inhibition of [^3 H]4-MA binding
# [10] = based on the increase in the weight
structure (smiles),measurement,setting,value
"O=C(O[C@@H]1Cc2c(O)cc(O)cc2O[C@@H]1c1cc(O)c(O)c(O)c1)c1cc(O)c(O)c(O)c1 [EGCG, (-)Epigallocatechin-3-gallate]",IC50,[1],3000 nM
same,inhibition at 5 µM,[1]; [9],61%
same,inhibition at 10 µM,[1]; [9],74%
same,inhibition at 20 µM,[1]; [9],79%
same,inhibition at 40 µM,[1]; [9],88%
same,inhibition at 200 µM,[1]; [9],93%
same,NADPH oxidation,[2],did not induce NADPH oxidation
same,"Body weight, % of Control, Increase",[3],20.3 % of Control
same,final body weight,"[4]; 15 mg/day, 7 days, control 238.2 ± 10.6",191.8 ± 12.0 g
same,Coagulating gland,"[4]; 15 mg/day, control 78.0 ± 5.9",45.5 ± 11.7 mg
same,Preputial gland,"[4]; 15 mg/day, control 126.8 ± 24.8",76.1 ± 33.1 mg
same,Ventral prostate,"[4]; 15 mg/day, control 201.9 ± 36.2",142.2 ± 10.7 mg
same,Seminal Vesicle,"[4]; 15 mg/day, control 234.3 ± 11.7",164.9 ± 30.4 mg
same,"Coagulating gland, % of Control, Final",[4]; based on the full weight,58.3 % of Control
same,"Final body weight, % of Control, Final",[4]; based on the full weight,80.5 % of Control
same,"Preputial gland, % of Control, Final",[4]; based on the full weight,60.0 % of Control
same,"Seminal Vesicle, % of Control, Final",[4]; based on the full weight,70.4 % of Control
same,"Ventral prostate, % of Control, Final",[4]; based on the full weight,70.4 % of Control
same,"Coagulating gland, % of Control, Increase",[4]; [10],39.8 % of Control
same,"Seminal Vesicle, % of Control, Increase",[4]; [10],52.3 % of Control
same,"Ventral prostate, % of Control, Increase",[4]; [10],62.0 % of Control
"CCCCC/C=C\C/C=C\C/C=C\CCCCC(=O)O [γ-Linolenic acid, γ-linolenic acid]",effect on UDP-glucuronic acid:5α-DHT glucuronosyl transferase,[5],did not affect
same,growth rate of pigmented macules,"hamster flank organ; FIG. 32, 1 and 2 mg",dramatically reduced
same,change of pigmented macule (#),"hamster flank organ; Table 7, 0.5 mg",-34%
same,change of pigmented macule (*),"hamster flank organ; Table 7, 0.5 mg",-19%
same,"Pigmented macule, right flank organ","hamster flank organ; Table 7, 0.5 mg/day",19.0 ± 3.6 mm^2
same,change of pigmented macule (#),"hamster flank organ; Table 7, 1.0 mg",-63%
same,change of pigmented macule (*),"hamster flank organ; Table 7, 1.0 mg",-54%
same,"Pigmented macule, right flank organ","hamster flank organ; Table 7, 1.0 mg/day",10.8 ± 2.7 mm^2
same,"Pigmented macule, left flank organ (vehicle)","hamster flank organ; Table 7, group 2, right treated with 0.5 mg",28.6 ± 4.0 mm^2
same,"Pigmented macule, left flank organ (vehicle)","hamster flank organ; Table 7, group 3, right treated with 1.0 mg",29.2 ± 4.8 mm^2
same,effect on contralateral pigmented macules,"hamster flank organ; hamster, in vivo",not affected
same,Ki,[6]; γ-LA 5 μM,20 nM
same,Ki,[6]; γ-LA 10 μM,40 nM
same,inhibition at 5 µM,[6]; [9],30%
same,inhibition at 10 µM,[6]; [9],50 ± 2%
same,inhibition at 40 µM,[6]; [9],83 ± 12%
same,inhibition at 200 µM,[6]; [9],96 ± 2%
same,visible change in cell morphology,[7],did not produce any visible
same,inhibition of 5α-reductase activity in liver and prostate,[8],inhibit 5α-reductase activity in both the liver and prostate
